Assay results taken from patent US9586962B2, “Disubstituted octahydropyrrolo [3,4-C] pyrroles as orexin receptor modulators” (Janssen Pharmaceutica NV, priority 2011, dated 2017).

target: human orexin 2 receptor (Homo sapiens (Human), UniProt O43614); assay: Human orexin 2 receptor Ca2+ mobilization assay (FLIPR, PFSK cells, orexin B 100 nM); assay type: cell-based; settings: modified Cheng-Prusoff correction, read-out: OR 2 Kb
Sequence (O43614 whole entry): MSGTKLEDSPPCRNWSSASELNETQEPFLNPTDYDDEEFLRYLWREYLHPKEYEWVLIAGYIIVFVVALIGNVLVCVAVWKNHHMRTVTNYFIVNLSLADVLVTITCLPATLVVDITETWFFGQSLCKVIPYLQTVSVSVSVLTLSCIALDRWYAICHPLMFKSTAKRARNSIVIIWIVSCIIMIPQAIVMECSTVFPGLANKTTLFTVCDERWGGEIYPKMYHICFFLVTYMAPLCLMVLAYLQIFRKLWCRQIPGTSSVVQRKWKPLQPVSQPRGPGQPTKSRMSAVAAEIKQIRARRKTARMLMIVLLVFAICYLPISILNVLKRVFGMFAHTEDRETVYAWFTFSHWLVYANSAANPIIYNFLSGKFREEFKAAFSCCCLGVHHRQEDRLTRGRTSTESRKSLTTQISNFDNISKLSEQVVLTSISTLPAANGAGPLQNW

Row | Kb [nM] | Structure (SMILES)
1 | 50 | Cc1cc(C)nc(N2CC3CN(C(=O)c4ccccc4-c4cccc(F)c4)CC3C2)n1 (stereo not shown) [Example 52, 2-(4,6-Dimethylpyrimidin-2-yl)-5-[(3′-fluorobiphenyl-2-yl)carbonyl]octahydro-pyrrolo[3,4-c]pyrrole]
2 | 25 | CN(C)c1nc(N2CC3CN(C(=O)c4cc(F)ccc4-c4ncccn4)CC3C2)cc(C(F)(F)F)n1 (stereo not shown) [Example 109, 4-{5-[(5-Fluoro-2-pyrimidin-2-ylphenyl)carbonyl]hexahydropyrrolo[3,4-c]pyrrol-2(1H)-yl}-N,N-dimethyl-6-(trifluoromethyl)pyrimidin-2-amine]
3 | 40 | COc1cc(OC)nc(N2CC3CN(C(=O)c4ccccc4-c4ccccn4)CC3C2)n1 (stereo not shown) [Example 70, 2-(4,6-Dimethoxypyrimidin-2-yl)-5-[(2-pyridin-2-ylphenyl)carbonyl]octahydro-pyrrolo[3,4-c]pyrrole]
4 | 79 | O=C(c1ccccc1-n1nccn1)N1CC2CN(c3nccc(-c4cccs4)n3)CC2C1 (stereo not shown) [Example 143, 2-(4-Thiophen-2-ylpyrimidin-2-yl)-5-{[2-(2H-1,2,3-triazol-2-yl)phenyl]carbonyl}octahydropyrrolo[3,4-c]pyrrole]
5 | 5 | Cc1ccnc(-c2c(F)cccc2C(=O)N2CC3CN(c4nc(C)cc(C)n4)CC3C2)c1 (stereo not shown) [Example 373, (5-(4,6-Dimethylpyrimidin-2-yl)hexahydropyrrolo[3,4-c]pyrrol-2(1H)-yl)(3-fluoro-2-(4-methylpyridin-2-yl)phenyl)methanone]
6 | 7 | Cc1noc(-c2ccccc2C(=O)N2CC3CN(c4nc(C)c5c(n4)CCC5)CC3C2)n1 (stereo not shown) [Example 319, 4-Methyl-2-[5-{[2-(3-methyl-1,2,4-oxadiazol-5-yl)phenyl]carbonyl}hexahydropyrrolo[3,4-c]pyrrol-2(1H)-yl]-6,7-dihydro-5H-cyclopenta[d]pyrimidine]
7 | 4 | Cc1nc(N2CC3CN(C(=O)c4ncccc4-n4nccn4)CC3C2)nc(C)c1C (stereo not shown) [Example 323, 2-{[3-(2H-1,2,3-Triazol-2-yl)pyridin-2-yl]carbonyl}-5-(4,5,6-trimethylpyrimidin-2-yl)octahydropyrrolo[3,4-c]pyrrole]
8 | 6 | Cc1ccc(-c2ncccn2)c(C(=O)N2CC3CN(c4nc(C)cc(C)n4)CC3C2)c1 (stereo not shown) [Example 102, 2-(4,6-Dimethylpyrimidin-2-yl)-5-[(5-methyl-2-pyrimidin-2-ylphenyl)carbonyl]octahydropyrrolo[3,4-c]pyrrole]
9 | 63 | CCOc1cccc(N2CC3CN(C(=O)c4ccccc4-n4nccn4)CC3C2)n1 (stereo not shown) [Example 147, 2-(6-Ethoxypyridin-2-yl)-5-{[2-(2H-1,2,3-triazol-2-yl)phenyl]carbonyl}octahydro pyrrolo[3,4-c]pyrrole]
10 | 14 | CN(C)c1cc(N2CC3CN(C(=O)c4c(F)cccc4-n4nccn4)CC3C2)nc(C(F)(F)F)n1 (stereo not shown) [Example 3, 6-[5-{[2-Fluoro-6-(2H-1,2,3-triazol-2-yl)phenyl]carbonyl}hexahydropyrrolo[3,4-c]pyrrol-2(1H)-yl]-N,N-dimethyl-2-(trifluoromethyl)pyrimidin-4-amine]
11 | 129 | Cc1ccc2ccccc2c1C(=O)N1CC2CN(c3cnc4ccccc4n3)CC2C1 (stereo not shown) [Example 20, 2-{5-[(2-Methylnaphthalen-1-yl)carbonyl]hexahydropyrrolo[3,4-c]pyrrol-2(1H)-yl}quinoxaline]
12 | 13 | COc1cc(N2CC3CN(C(=O)c4ccc(F)cc4-n4nccn4)CC3C2)nc(N(C)C)n1 (stereo not shown) [Example 7, 4-[5-{[4-Fluoro-2-(2H-1,2,3-triazol-2-yl)phenyl]carbonyl}hexahydropyrrolo[3,4-c]pyrrol-2(1H)-yl]-6-methoxy-N,N-dimethylpyrimidin-2-amine]
13 | 158 | O=C(c1ccccc1-c1cccs1)N1CC2CN(c3nccc(-c4ccccc4)n3)CC2C1 (stereo not shown) [Example 22, 2-(4-Phenylpyrimidin-2-yl)-5-[(2-thiophen-2-ylphenyl)carbonyl]octahydro-pyrrolo[3,4-c]pyrrole]
